In US11242346B2, “Mechanistic target of rapamycin signaling pathway inhibitors and therapeutic applications thereof” (SUZHOU KINTOR PHARMACEUTICALS, INC., priority 2016, dated 2022):

Assays:
[1] = biological target: mTOR (FRAP1) (Homo sapiens, UniProt P42345); experiment: SelectScreen Profiling, Z'-LYTE kinase assay, mTOR (FRAP1); assay type: biochemical; conditions: 0.1 μM compound, ATP at Km, read-out: mTOR inh% @0.1 μM
Source text: (§1) Some of the example compounds were submitted to Life Technologies Corporation SelectScreen® Profiling Service to test their potency in inhibiting the kinase catalytic activities of mTOR, PI3Kα, VEGF2, FGFR1, HER1 (EGFR) and HER2. A concentration of ATP at the Km of the corresponding kinase was used for all assays. The mTOR (FRAP1), VEGF2, FGFR1, HER1 (EGFR) and HER2 assays used Z′-LYTE® technology. The PI3Kα assay used Adapta® technology. The symbol “inh %” as used herein generally refers to inhibition percentage.

[2] = biological target: VEGF2 (Homo sapiens, UniProt P35968); experiment: SelectScreen Profiling, Z'-LYTE kinase assay, VEGF2; assay type: biochemical; conditions: 1 μM compound, ATP at Km, read-out: VEGF 2 inh % @1 μM
Source text: as §1

[3] = biological target: FGFR1 (Homo sapiens, UniProt P11362); experiment: SelectScreen Profiling, Z'-LYTE kinase assay, FGFR1; assay type: biochemical; conditions: 1 μM compound, ATP at Km, read-out: FGFR 1 inh % @1 μM
Source text: as §1

[4] = biological target: HER1 (EGFR) (Homo sapiens, UniProt P00533); experiment: SelectScreen Profiling, Z'-LYTE kinase assay, HER1 (EGFR); assay type: biochemical; conditions: 1 μM compound, ATP at Km, read-out: HER1 inh % @1 μM
Source text: as §1

[5] = biological target: HER2 (Homo sapiens, UniProt P04626); experiment: SelectScreen Profiling, Z'-LYTE kinase assay, HER2; assay type: biochemical; conditions: 1 μM compound, ATP at Km, read-out: HER2 inh % @1 μM
Source text: as §1

[6] = tested on: mammalian tumor cell lines such as PC-3, LNCAP, U87, Huh-7, HepG2 and MDA-MB-468; experiment: Cell proliferation/survival MTT assay in tumor cell lines; assay type: cell-based; conditions: 5 days (120 h) culture; cell line not specified; read-out: IC50, inhibition of tumor cell growth (MTT)
Experimental: The cytotoxic or cytostatic activity of Formula I-III exemplary compounds was measured by establishing proliferating mammalian tumor cell lines such as PC-3, LNCAP, U87, Huh-7, HepG2 and MDA-MB-468 in a cell culture medium, adding a test compound, culturing the cells for a period of 5 days by measuring cell viability via MTT assays. Dose response data were obtained for each test compound and the degree of inhibition of tumor cell growth was expressed as an IC50 value. […] For example. For example, compounds of example 14, 15, 46,29, 45, 49, 122, 88, 54, 55, 58, 59, 63, 64, 66, 67, 68, 113, 86, 90.
PC-3 (or U87) cells were seeded in 96-well plates at low density (at 2,000 cells per well) in media supplemented with 10% FBS (growth media) and transferred to serum-free media (1% FBS) after 24 h. Designated concentrations of drug were added to each well. The cells were incubated for 120 h. At the end of drug exposure, 20 μL/well of MTT solution was added. After 4 h at 37° C. in a humidified 5% CO2 atmosphere, the absorbance at 490 nm was recorded by using a microplate reader. IC50 was calculated using GraphPad Prism version 5 for Windows. The curves were fit using a nonlinear regression model with a log (inhibitor) versus response formula.

[7] = Metabolic stability in human liver microsome (HLM); assay type: in vitro ADME; conditions: incubation with human liver microsome for 60 min
Experimental: (§2) Active mTOR inhibitors in enzymatic and/or cell-based assays herein were evaluated for pharmacokinetic properties. Preferable compounds are with pharmacokinetic properties of low clearance, long half-life and/or good oral bioavailability (Fpo). In vitro, selected example compounds were evaluated for metabolic stability by incubating with human liver microsome (HLM) for 60 min. Compounds that were metabolized slower (i.e. higher % remaining) are preferred. […] The more metabolic stable example compounds in the HLM assay were further evaluated for pharmacokinetic properties in vivo. In a representative experiment, selected example compounds were dosed to rats intravenously (IV, 5 mg/kg, 30% PEG400+30% PG+1% DMSO in saline) and orally (PO, 10 mg/kg, 2.4% DMSO+0.1% Tween80 in 0.5% CMC-Na), rat blood samples were taken at designed time points after dosing and analyzed for tested drug concentrations using LC-MS/MS. Pharmacokinetic parameters were derived from the time curve of drug concentrations.

[8] = Rat pharmacokinetic study (IV and PO); assay type: in vivo
Experimental: as §2

[9] = biological target: PI3Kα (Homo sapiens, UniProt P42336); experiment: SelectScreen Profiling, Adapta kinase assay, PI3Kα; assay type: biochemical; conditions: 0.1 μM compound, ATP at Km, read-out: PI3Kα inh % @0.1 μM
Sequence of PI3Kα (P42336 whole entry): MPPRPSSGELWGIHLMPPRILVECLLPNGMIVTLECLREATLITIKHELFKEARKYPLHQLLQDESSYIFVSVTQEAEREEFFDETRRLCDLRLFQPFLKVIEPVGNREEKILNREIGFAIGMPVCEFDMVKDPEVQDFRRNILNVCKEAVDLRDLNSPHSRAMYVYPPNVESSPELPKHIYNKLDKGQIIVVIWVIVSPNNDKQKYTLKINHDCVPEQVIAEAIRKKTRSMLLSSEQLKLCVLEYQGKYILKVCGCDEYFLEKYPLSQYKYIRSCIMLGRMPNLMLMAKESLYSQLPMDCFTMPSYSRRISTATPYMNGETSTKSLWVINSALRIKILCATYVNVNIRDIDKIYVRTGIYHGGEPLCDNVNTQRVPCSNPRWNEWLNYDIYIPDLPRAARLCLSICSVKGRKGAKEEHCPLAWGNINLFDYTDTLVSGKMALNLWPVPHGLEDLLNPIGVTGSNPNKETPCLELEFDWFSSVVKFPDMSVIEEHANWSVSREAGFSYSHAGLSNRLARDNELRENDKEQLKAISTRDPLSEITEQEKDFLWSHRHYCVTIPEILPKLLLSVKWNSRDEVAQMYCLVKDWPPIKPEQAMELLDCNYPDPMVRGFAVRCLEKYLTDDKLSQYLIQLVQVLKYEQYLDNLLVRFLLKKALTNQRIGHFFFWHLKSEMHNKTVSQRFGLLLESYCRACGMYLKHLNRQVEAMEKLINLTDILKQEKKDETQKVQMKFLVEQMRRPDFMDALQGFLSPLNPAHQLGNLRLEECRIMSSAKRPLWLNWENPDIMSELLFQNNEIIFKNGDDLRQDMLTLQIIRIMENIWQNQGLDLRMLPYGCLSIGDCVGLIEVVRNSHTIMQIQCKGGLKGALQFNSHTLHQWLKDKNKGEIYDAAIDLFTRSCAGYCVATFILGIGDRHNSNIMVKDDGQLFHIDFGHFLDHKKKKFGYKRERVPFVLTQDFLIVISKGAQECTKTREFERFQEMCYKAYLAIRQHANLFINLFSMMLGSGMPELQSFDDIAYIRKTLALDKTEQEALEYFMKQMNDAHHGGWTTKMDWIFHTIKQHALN
Sequence of PI3Kα (P27986 whole entry partner): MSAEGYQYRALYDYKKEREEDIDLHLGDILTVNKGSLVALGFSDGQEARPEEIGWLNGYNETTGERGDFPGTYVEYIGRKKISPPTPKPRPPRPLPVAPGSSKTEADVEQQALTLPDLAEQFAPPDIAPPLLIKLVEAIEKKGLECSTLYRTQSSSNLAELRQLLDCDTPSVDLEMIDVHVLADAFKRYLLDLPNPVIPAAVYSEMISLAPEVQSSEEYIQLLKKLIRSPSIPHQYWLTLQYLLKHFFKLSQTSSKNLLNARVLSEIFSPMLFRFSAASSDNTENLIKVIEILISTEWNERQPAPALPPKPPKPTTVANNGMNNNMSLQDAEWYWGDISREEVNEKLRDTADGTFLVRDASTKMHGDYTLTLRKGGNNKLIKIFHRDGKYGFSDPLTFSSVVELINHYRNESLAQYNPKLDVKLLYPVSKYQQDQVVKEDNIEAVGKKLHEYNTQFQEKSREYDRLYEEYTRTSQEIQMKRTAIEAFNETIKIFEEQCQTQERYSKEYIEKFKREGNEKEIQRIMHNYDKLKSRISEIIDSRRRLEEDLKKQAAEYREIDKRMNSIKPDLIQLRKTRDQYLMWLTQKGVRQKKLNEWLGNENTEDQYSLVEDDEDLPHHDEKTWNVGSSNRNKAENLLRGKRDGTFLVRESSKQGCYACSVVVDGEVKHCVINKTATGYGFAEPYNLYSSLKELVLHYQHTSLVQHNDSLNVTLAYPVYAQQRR

Sequence of HER2 (P04626 23-1255): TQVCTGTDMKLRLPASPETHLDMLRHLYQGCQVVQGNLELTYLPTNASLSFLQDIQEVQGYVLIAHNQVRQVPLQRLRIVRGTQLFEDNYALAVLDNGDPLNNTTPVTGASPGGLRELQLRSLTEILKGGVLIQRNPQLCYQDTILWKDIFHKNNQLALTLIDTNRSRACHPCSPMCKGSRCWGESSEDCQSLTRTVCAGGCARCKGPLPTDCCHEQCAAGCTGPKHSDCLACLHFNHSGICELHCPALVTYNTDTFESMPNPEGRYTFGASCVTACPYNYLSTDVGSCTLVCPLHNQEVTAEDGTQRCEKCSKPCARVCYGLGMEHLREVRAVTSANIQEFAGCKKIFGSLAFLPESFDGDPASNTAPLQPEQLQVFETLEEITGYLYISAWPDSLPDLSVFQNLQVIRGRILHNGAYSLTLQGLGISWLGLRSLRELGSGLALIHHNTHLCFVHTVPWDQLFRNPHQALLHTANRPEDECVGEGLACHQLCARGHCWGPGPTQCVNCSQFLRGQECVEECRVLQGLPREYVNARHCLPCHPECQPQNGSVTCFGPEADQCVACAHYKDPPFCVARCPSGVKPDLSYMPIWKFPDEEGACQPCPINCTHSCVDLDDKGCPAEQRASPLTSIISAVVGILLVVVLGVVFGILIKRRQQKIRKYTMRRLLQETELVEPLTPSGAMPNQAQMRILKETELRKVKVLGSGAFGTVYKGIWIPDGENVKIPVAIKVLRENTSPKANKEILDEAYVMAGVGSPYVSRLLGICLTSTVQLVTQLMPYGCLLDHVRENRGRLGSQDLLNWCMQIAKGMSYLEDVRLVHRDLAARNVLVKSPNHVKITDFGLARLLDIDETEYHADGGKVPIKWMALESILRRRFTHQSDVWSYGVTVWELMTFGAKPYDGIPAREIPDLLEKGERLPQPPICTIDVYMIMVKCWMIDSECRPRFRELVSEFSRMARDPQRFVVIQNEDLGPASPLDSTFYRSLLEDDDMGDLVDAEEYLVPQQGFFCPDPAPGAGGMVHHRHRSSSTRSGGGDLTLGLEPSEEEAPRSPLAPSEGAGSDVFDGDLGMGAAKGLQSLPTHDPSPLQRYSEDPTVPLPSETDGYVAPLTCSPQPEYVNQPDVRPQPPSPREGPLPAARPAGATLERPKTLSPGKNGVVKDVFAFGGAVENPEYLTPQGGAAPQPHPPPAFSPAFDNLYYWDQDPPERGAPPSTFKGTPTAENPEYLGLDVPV
Sequence of HER1 (EGFR) (P00533 25-1210): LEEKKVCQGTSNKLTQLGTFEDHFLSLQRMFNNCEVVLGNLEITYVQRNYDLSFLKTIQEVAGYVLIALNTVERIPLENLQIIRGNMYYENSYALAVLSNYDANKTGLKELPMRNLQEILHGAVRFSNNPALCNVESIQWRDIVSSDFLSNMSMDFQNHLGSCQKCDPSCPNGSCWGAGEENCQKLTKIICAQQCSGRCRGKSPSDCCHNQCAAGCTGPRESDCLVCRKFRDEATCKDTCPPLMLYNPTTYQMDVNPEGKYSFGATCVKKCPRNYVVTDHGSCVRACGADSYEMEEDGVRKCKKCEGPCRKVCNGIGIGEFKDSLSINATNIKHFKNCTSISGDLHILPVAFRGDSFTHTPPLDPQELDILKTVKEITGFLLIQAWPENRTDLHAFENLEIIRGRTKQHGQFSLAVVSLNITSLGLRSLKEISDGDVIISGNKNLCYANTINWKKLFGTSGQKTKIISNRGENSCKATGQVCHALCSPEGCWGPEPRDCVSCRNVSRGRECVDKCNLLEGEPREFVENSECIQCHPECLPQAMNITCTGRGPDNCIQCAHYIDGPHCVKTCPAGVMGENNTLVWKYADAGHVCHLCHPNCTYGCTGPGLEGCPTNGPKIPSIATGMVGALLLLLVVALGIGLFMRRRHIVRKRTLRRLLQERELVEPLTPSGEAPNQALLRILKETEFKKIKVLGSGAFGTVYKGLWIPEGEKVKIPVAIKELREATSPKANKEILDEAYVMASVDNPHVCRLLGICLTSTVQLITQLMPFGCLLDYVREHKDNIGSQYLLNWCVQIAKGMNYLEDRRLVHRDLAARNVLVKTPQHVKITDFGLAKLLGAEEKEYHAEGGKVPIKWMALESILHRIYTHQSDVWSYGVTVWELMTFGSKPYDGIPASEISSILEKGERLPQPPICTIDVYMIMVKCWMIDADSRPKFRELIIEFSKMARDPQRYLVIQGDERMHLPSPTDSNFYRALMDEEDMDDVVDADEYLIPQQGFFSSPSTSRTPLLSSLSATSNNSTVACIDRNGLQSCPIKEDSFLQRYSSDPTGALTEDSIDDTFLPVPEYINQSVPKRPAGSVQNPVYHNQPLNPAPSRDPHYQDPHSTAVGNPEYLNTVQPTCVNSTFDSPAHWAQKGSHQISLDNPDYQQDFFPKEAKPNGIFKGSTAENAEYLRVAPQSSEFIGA
Sequence of FGFR1 (P11362 22-822): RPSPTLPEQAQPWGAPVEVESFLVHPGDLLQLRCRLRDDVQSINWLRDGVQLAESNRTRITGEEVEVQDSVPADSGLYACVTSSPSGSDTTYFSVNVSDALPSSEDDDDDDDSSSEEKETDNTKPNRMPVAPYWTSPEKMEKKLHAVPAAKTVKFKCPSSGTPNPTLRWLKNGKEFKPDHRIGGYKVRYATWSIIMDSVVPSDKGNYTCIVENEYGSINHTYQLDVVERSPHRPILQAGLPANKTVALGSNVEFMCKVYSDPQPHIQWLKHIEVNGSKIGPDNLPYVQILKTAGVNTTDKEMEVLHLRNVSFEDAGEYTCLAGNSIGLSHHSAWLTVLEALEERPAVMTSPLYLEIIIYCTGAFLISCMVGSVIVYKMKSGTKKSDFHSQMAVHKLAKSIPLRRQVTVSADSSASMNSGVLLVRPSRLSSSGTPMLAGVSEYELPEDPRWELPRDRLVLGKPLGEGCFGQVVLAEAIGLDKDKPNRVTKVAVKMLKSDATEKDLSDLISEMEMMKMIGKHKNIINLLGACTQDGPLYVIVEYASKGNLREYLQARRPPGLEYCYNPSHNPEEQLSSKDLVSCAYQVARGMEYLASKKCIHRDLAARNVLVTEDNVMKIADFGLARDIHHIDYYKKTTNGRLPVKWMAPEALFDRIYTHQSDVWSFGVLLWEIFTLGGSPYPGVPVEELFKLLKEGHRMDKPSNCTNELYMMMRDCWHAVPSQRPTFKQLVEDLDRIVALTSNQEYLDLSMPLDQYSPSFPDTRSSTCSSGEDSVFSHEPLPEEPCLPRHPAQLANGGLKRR

For `CN(C)[C@@H]1CCN(C(=O)c2ccc(NC(=O)Nc3ccc(-c4nc(N5CCOCC5)c5cccn5n4)cc3)cc2)C1` [Example 58], the inhibition at 0.1 µM [1] was 97%, the inhibition at 1 µM [2] was 10% and the inhibition at 1 µM [3] was 4%. For the same compound, the inhibition at 1 µM [4] was 1%, the inhibition at 1 µM [5] was -5% and the IC50 [6] was less than 500 nM.

In the case of `CC(C)(C)C(=O)OCCNC(=O)Nc1ccc(-c2nc(N3C[C@H]4CC[C@@H](C3)O4)c3cccn3n2)cc1` [Example 133], the inhibition at 0.1 µM [1] is reported as 90%, the inhibition at 1 µM [2] is reported as 9% and the inhibition at 1 µM [3] is reported as 4%. The inhibition at 1 µM [4] was 1% and the inhibition at 1 µM [5] was 5%.

With `CN(C)C1CCN(C(=O)c2ccc(NC(=O)Nc3ccc(-c4nc(N5CCOCC5)c5ccc(C(C)(C)O)n5n4)cc3)cc2)CC1` [Example 90] the IC50 [6] was less than 500 nM.

For `CN(C)C1CCN(C(=O)c2ccc(NC(=O)Nc3ccc(-c4nc(N5CCOCC5)c5ccc(C(F)(F)F)n5n4)cc3)cc2)CC1` [Example 64], the inhibition at 0.1 µM [1] was 62%, the IC50 [6] was less than 500 nM and the “metabolic stability in HLM” value [7] was “metabolically stable”.

For `O=C(NCCO)Nc1ccc(-c2nc(N3C[C@H]4CC[C@@H](C3)O4)c3cccn3n2)cc1` [Example 127], the “metabolic stability in HLM” value [7] was “metabolically stable”, the CL ([8]; PO 10 mg/kg) was 6.772 L/h/kg and the AUC(0-t) ([8]; blood, IV 5 mg/kg) was 3420 ng·h/mL. For the same compound, the Cmax ([8]; blood, IV 5 mg/kg) was 3380 ng/mL, the MRT ([8]; blood, IV 5 mg/kg) was 1.3 h and the clearance ([8]; blood, IV 5 mg/kg) was 24.4 mL/min/kg. It also gave a half-life ([8]; blood, IV 5 mg/kg) of 88 min, an AUC(0-t) ([8]; blood, PO 10 mg/kg) of 1400 ng·h/mL and a Cmax ([8]; blood, PO 10 mg/kg) of 296 ng/mL. For the same compound, the MRT ([8]; blood, PO 10 mg/kg) was 5.11 h, the Tmax ([8]; blood, PO 10 mg/kg) was 25 min and the half-life ([8]; blood, PO 10 mg/kg) was 198 min. It also gave a bioavailability ([8]; blood, PO 10 mg/kg vs IV 5 mg/kg, read-out: Fpo (oral bioavailability)) of 22%.

For `O=C(Nc1ccncc1)Nc1ccc(-c2nc(N3CCOCC3)c3cccn3n2)cc1` [Example 18], the inhibition at 0.1 µM [9] was -13%.

In the case of `O=C(Nc1ccc(C(=O)N2CCNCC2)cc1)Nc1ccc(-c2nc(N3CCOCC3)c3cccn3n2)cc1` [Example 56], the inhibition at 0.1 µM [1] is reported as 88% and the “metabolic stability in HLM” value [7] is reported as “metabolically stable”.

Compound `CN(C)CCNC(=O)c1ccc(NC(=O)Nc2ccc(-c3nc(N4CCOCC4)c4cccn4n3)cc2)cc1` [Example 45] has an inhibition at 0.1 µM [1] of 98%, an inhibition at 0.1 µM [9] of 0% and an inhibition at 1 µM [2] of 10%. The inhibition at 1 µM [3] was 4%, the inhibition at 1 µM [4] was -2% and the inhibition at 1 µM [5] was -9%. The IC50 [6] was less than 500 nM.

With `CS(=O)(=O)N1CCN(Cc2cc3nc(-c4cccc5[nH]ncc45)nc(N4CCOCC4)c3s2)CC1` [GDC0941, reference compound] the inhibition at 0.1 µM [1] was 6%.

With `CN1CCN(C(=O)c2ccc(NC(=O)Nc3ccc(-c4nc(N5CCOCC5)c5ccc(C(F)(F)F)n5n4)cc3)cc2)CC1` [Example 65] the inhibition at 0.1 µM [1] was 63% and the inhibition at 0.1 µM [9] was 19%.

In the case of `CC(C)(O)c1ccc2c(N3CCOCC3)nc(-c3ccc(NC(=O)Nc4cccnc4)cc3)nn12` [Example 63], the inhibition at 0.1 µM [1] is reported as 71% and the IC50 [6] is reported as less than 500 nM.

Work on `CNC(=O)c1ccc(NC(=O)Nc2ccc(-c3nc(N4CCOCC4)c4cccn4n3)cc2)cc1F` [Example 61] yielded an inhibition at 0.1 µM [1] of 71%.

With `CCNC(=O)Nc1ccc(-c2nc(N3CCOC[C@H]3C)c3cccn3n2)cc1` [Example 4] the inhibition at 0.1 µM [1] was 72% and the inhibition at 0.1 µM [9] was 10%.

For `O=C(Nc1ccc(C(=O)N2CC[C@@H](O)C2)cc1)Nc1ccc(-c2nc(N3CCOCC3)c3cccn3n2)cc1` [Example 67], the inhibition at 0.1 µM [1] was 87%, the IC50 [6] was less than 500 nM and the “metabolic stability in HLM” value [7] was “metabolically stable”.

For `CN(C)CCCNC(=O)c1ccc(NC(=O)Nc2ccc(-c3nc(N4CCOCC4)c4cccn4n3)cc2)cc1` [Example 47], the inhibition at 0.1 µM [1] was 89%, the inhibition at 1 µM [2] was 10% and the inhibition at 1 µM [3] was 6%. For the same compound, the inhibition at 1 µM [4] was 1% and the inhibition at 1 µM [5] was -5%.

For `C[C@@H]1COCCN1c1nc(-c2ccc(NC(=O)Nc3ccc(C(=O)N4CC[C@@H](O)C4)cc3)cc2)nn2cccc12` [Example 88], the IC50 [6] was less than 500 nM.
